According to PubChem BioAssay (NCI):
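Protocol summary: plate cells (96-well), add compound at 5 concentrations, incubate 48 h, interpolate endpoints linearly. GI50 marks 50% less growth. TGI: concentration producing complete growth inhibition.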

How the values were obtained:
Assay in all cases: inhibition of tumour cell growth, NCI panel, 48 h
[1] = test system: EKVX NSCLC
[2] = test system: HS 578T breast
[3] = test system: UACC-257 melanoma
[4] = test system: IGROV1 ovarian
[5] = test system: MOLT-4 leukemia
[6] = test system: SK-OV-3 ovarian
[7] = test system: COLO 205 colon
[8] = test system: UO-31 renal
[9] = test system: A549 NSCLC
[10] = test system: SK-MEL-2 melanoma
[11] = test system: TK-10 renal
[12] = test system: 786-0 renal
[13] = test system: RXF 393 renal
[14] = test system: UACC-62 melanoma
[15] = test system: NCI/ADR-RES ovarian
[16] = test system: BT-549 breast
[17] = test system: DU-145 prostate
[18] = test system: SW-620 colon
[19] = test system: LOX IMVI melanoma
[20] = test system: U251 CNS
[21] = test system: MDA-MB-231 breast
[22] = test system: CAKI-1 renal
[23] = test system: M14 melanoma
[24] = test system: SK-MEL-28 melanoma
[25] = test system: MDA-MB-435
[26] = test system: OVCAR-5 ovarian
[27] = test system: PC-3 prostate
[28] = test system: KM12 colon
[29] = test system: OVCAR-4 ovarian
[30] = test system: A498 renal
[31] = test system: HCT-15 colon
[32] = test system: NCI-H226 lung
[33] = test system: MCF7 breast
[34] = test system: OVCAR-8 ovarian
[35] = test system: T-47D breast
[36] = test system: SF-268 CNS
[37] = test system: HOP-62 NSCLC
[38] = test system: HOP-92 NSCLC
[39] = test system: SNB-75 CNS
[40] = test system: ACHN renal
[41] = test system: SK-MEL-5 melanoma
[42] = test system: K-562 leukemia
[43] = test system: HCT-116 colon
[44] = test system: NCI-H522 lung
[45] = test system: SNB-19 CNS
[46] = test system: SN12C renal
[47] = test system: HCC-2998 colon
[48] = test system: NCI-H460 lung
[49] = test system: SF-295 CNS
[50] = test system: CCRF-CEM leukemia
[51] = test system: HT29 colon
[52] = test system: NCI-H23 lung
[53] = test system: OVCAR-3 ovarian
[54] = test system: HL-60(TB) leukemia
[55] = test system: SF-539 CNS
[56] = test system: MALME-3M melanoma
[57] = test system: SR leukemia
[58] = test system: RPMI-8226 leukemia

## O=C1c2ccccc2-c2c1c1ccccc1c(=O)n2CCCNCCCNCCCn1c2c(c3ccccc3c1=O)C(=O)c1ccccc1-2
[1]
  GI50: 0.25 µM
  TGI: 0.595 µM
[2]
  GI50: 0.0984 µM
  TGI: 1.28 µM
[3]
  GI50: 0.811 µM
  TGI: 2.25 µM
[4]
  GI50: < 0.01 µM
  TGI: < 0.0416 µM
[5]
  GI50: < 0.01 µM
[6]
  GI50: 1.9 µM
  TGI: 6.04 µM
[7]
  GI50: 0.572 µM
  TGI: 8.1 µM
[8]
  GI50: 0.0878 µM
  TGI: 0.215 µM
[9]
  GI50: 0.0174 µM
  TGI: 0.183 µM
[10]
  GI50: 15 µM
  TGI: 28.2 µM
[11]
  TGI: 0.732 µM
[12]
  GI50: < 0.0362 µM
  TGI: 0.172 µM
[13]
  GI50: 0.0569 µM
  TGI: 1.11 µM
[14]
  GI50: 0.0434 µM
  TGI: 0.346 µM
[15]
  GI50: 0.319 µM
  TGI: 1.98 µM
[16]
  GI50: 0.665 µM
  TGI: 2.08 µM
[17]
  GI50: 0.0295 µM
  TGI: 0.181 µM
[18]
  GI50: < 0.01 µM
  TGI: 0.15 µM
[19]
  GI50: 0.0215 µM
  TGI: 0.175 µM
[20]
  GI50: < 0.01 µM
  TGI: 0.122 µM
[21]
  GI50: < 0.01 µM
  TGI: 0.112 µM
[22]
  GI50: 0.342 µM
  TGI: 1.7 µM
[23]
  GI50: 0.333 µM
  TGI: 1.29 µM
[24]
  GI50: 1.17 µM
  TGI: 2.83 µM
[25]
  GI50: 0.338 µM
  TGI: 2.26 µM
[26]
  GI50: 0.0763 µM
  TGI: 0.731 µM
[27]
  GI50: 0.0397 µM
  TGI: 0.142 µM
[28]
  GI50: 0.028 µM
  TGI: 0.219 µM
[29]
  GI50: 0.188 µM
  TGI: 1.02 µM
[30]
  GI50: 1.25 µM
  TGI: 2.61 µM
[31]
  GI50: 0.0605 µM
  TGI: 0.196 µM
[32]
  GI50: < 0.014 µM
  TGI: 0.903 µM
[33]
  GI50: 0.0382 µM
  TGI: 0.18 µM
[34]
  GI50: < 0.01 µM
  TGI: 0.201 µM
[35]
  GI50: 1.64 µM
  TGI: 6.4 µM
[36]
  GI50: 0.231 µM
  TGI: 4.13 µM
[37]
  GI50: < 0.01 µM
[38]
  GI50: 0.587 µM
  TGI: 2.18 µM
[39]
  GI50: 1.13 µM
  TGI: 3.05 µM
[40]
  GI50: < 0.01 µM
  TGI: 0.388 µM
[41]
  GI50: 0.12 µM
  TGI: 1.22 µM
[42]
  GI50: 0.0225 µM
  TGI: 1.22 µM
[43]
  GI50: < 0.01 µM
  TGI: 0.476 µM
[44]
  GI50: < 0.01 µM
  TGI: 0.0554 µM
[45]
  GI50: 0.681 µM
  TGI: 4.1 µM
[46]
  GI50: < 0.01 µM
  TGI: < 0.0303 µM
[47]
  GI50: < 0.0162 µM
  TGI: 0.167 µM
[48]
  GI50: < 0.0169 µM
  TGI: 0.266 µM
[49]
  GI50: 0.0151 µM
  TGI: 1.26 µM
[50]
  GI50: < 0.01 µM
  TGI: 0.175 µM
[51]
  GI50: < 0.01 µM
  TGI: 0.135 µM
[52]
  GI50: 0.0383 µM
  TGI: 1.64 µM
[53]
  GI50: 0.0818 µM
  TGI: 0.232 µM

## Cc1c(C(=O)/C=C/c2csc3ccccc23)[n+](=O)c2ccccc2n1[O-]
[1]
  GI50: 1.32 µM
  TGI: 3.64 µM
[2]
  GI50: 1.56 µM
  TGI: 5.22 µM
[3]
  GI50: 1.81 µM
  TGI: 3.73 µM
[4]
  GI50: 1.34 µM
  TGI: 3.04 µM
[5]
  GI50: 2.71 µM
  TGI: 7 µM
[6]
  GI50: 1.79 µM
  TGI: 4.95 µM
[8]
  GI50: 1.24 µM
  TGI: 2.56 µM
[9]
  GI50: 2.13 µM
  TGI: 5.25 µM
[10]
  GI50: 2.06 µM
  TGI: 4.23 µM
[11]
  GI50: 2.79 µM
  TGI: 6.09 µM
[12]
  GI50: 1.64 µM
  TGI: 3.09 µM
[13]
  GI50: 1.91 µM
  TGI: 3.58 µM
[14]
  GI50: 1.77 µM
  TGI: 3.65 µM
[15]
  GI50: 2.01 µM
  TGI: 5 µM
[16]
  GI50: 1.61 µM
  TGI: 3.88 µM
[17]
  GI50: 1.46 µM
  TGI: 2.78 µM
[18]
  GI50: 1.49 µM
  TGI: 2.81 µM
[19]
  GI50: 1.23 µM
  TGI: 2.47 µM
[20]
  GI50: 1.64 µM
  TGI: 3.17 µM
[21]
  GI50: 1.94 µM
  TGI: 4.81 µM
[22]
  GI50: 1.42 µM
  TGI: 3.7 µM
[23]
  GI50: 1.57 µM
  TGI: 3.21 µM
[24]
  GI50: 2.07 µM
  TGI: 4.81 µM
[25]
  GI50: 1.73 µM
  TGI: 3.26 µM
[26]
  GI50: 1.47 µM
  TGI: 2.94 µM
[27]
  GI50: 1.71 µM
  TGI: 4.3 µM
[28]
  GI50: 1.56 µM
  TGI: 2.9 µM
[29]
  GI50: 1.98 µM
  TGI: 4.83 µM
[30]
  GI50: 3.38 µM
  TGI: 13.8 µM
[31]
  GI50: 1.83 µM
  TGI: 4.4 µM
[32]
  GI50: 1.82 µM
  TGI: 4.94 µM
[33]
  GI50: 2.28 µM
  TGI: 8.18 µM
[34]
  GI50: 2.37 µM
  TGI: 6.31 µM
[35]
  GI50: 1.92 µM
  TGI: 5.81 µM
[36]
  GI50: 1.44 µM
  TGI: 2.78 µM
[37]
  GI50: 1.41 µM
  TGI: 2.8 µM
[54]
  GI50: 1.78 µM
  TGI: 5.19 µM
[39]
  GI50: 1.38 µM
  TGI: 3.34 µM
[40]
  GI50: 1.48 µM
  TGI: 2.8 µM
[41]
  GI50: 1.59 µM
  TGI: 2.94 µM
[55]
  GI50: 1.59 µM
  TGI: 3.12 µM
[43]
  GI50: 1.37 µM
  TGI: 2.65 µM
[44]
  GI50: 1.78 µM
  TGI: 3.88 µM
[56]
  GI50: 2.29 µM
  TGI: 8.06 µM
[45]
  GI50: 2.08 µM
  TGI: 4.77 µM
[57]
  GI50: 1.79 µM
  TGI: 8.69 µM
[46]
  GI50: 2 µM
  TGI: 4.72 µM
[47]
  GI50: 1.91 µM
  TGI: 3.38 µM
[48]
  GI50: 1.41 µM
  TGI: 2.71 µM
[49]
  GI50: 1.94 µM
  TGI: 4.83 µM
[50]
  GI50: 2.42 µM
  TGI: 7.56 µM
[51]
  GI50: 2.2 µM
  TGI: 4.13 µM
[52]
  GI50: 1.61 µM
  TGI: 3.49 µM
[58]
  GI50: 1.78 µM
  TGI: 4.91 µM
[53]
  GI50: 1.32 µM
  TGI: 2.62 µM
